For nine compounds, IC50 results are on record in US6511978B1, “Pyrrole derivatives useful for farnesyl transferase inhibitors and their preparations” (LG Life Sciences, Ltd., priority 1999, dated 2003).

pIC50: −log10 of the molar value.

Assay [1] addresses T1, Ras farnesyl transferase (Rattus norvegicus, UniProt Q02293+Q04631).
T1 construct: endogenous in cells; host or cells: Rat2 fibroblasts transformed with C-Harvey-Ras or with the H-Ras/K-Ras polybasic-domain fusion
As to the kind of experiment: In vivo (intracellular) Ras farnesylation inhibition in Rat2 cell line expressing C-Harvey-Ras. Format: cell-based. To be noted: Rat2 cells expressing C-Harvey-Ras; concentration inhibiting 50% of farnesyl binding; read-out: H-Ras CIC50. The method, then:
(§1) In the present experiment, Rat2 cell line which expresses C-Harvey-Ras protein having transforming activity and Rat2 cell line(Korean patent application No. 97-14409) which is transformed with fused protein of H-Ras substituted with polybasic lysine domain at C-terminus of K-Ras were used. The experiment was performed by the modified Declue's method(Declue. J. E. et al., Cancer Research, 51, 712, 1991) as follows.
(§2) 3×10^5 cells of transformed Rat2 fibroblast cell line were sprayed on 60 mm cell cultivation dish and cultivated for 48 hours in a cell incubator at 37° C. and after 50% or more of density was reached, it was treated with the test compounds. The compound according to the present invention dissolved in dimethylsulfoxide(DMSO) was used. 1% concentration of dimethylsulfoxide was used in both control and test groups. After 4 hours from the treatment with the compound, methionine labeled with 150 μCi of radioactive isotope [^35S] per 1 ml of medium was added and after cultivating for 20 hours, the cells were washed with physiological saline water. The cells were lysed using 1 ml of cold cell lysis buffer solution(50 mM of Sodium HEPES buffer solution containing 5 mM of magnesium chloride, 1 mM of DTT, 1% NP 40, 1 mM of EDTA, 1 mM of PMSF, 2 μM of leupeptin, 2 μM of pepstatin A and 2 μM of antipain) and the supernatant wherein the cells were lysed was obtained by high-velocity centrifugation of 12,000 g×5 minutes. The amount of radioisotope in the supernatant was measured and standardized to obtain a quantitative result in immunoprecipitation reaction and then, Y13-259, a monoclonal antiboby specifically binding to Ras protein(see: Furth, M. E. et al., J. Virol, 43, 294, 1982) was added and reacted for 15 hours at 4° C. Protein A(combined with goat anti-murine immunoglobulin antibody)-agarose suspension was added to the solution and reacted for 1 hour at 4° C. and then, to remove the unspecific binding product, immunoprecipitates were washed with a buffer solution (50 mM Tris chloride buffer solution containing 50 mM of sodium chloride, 0.5% of sodium dioxycholate, 0.5% of NP 40 and 0.1% of SDS). The precipitates were added to a buffer solution for electrophoresis and boiled and then, electrophoresis was performed using 13.5% of SDS polyacrylamide gel. After electrophoresis, the gel was fixed and dried. Then, the gel was exposed to X-ray film, developed and printed. From the result of the experiment, intensities of band of protein combined with or without farnesyl of Ras protein was measured, and the concentration of the test compound inhibiting 50% of farnesyl binding was defined as CIC50, an in vivo Ras farnesyl transferase inhibitory activity. IC50 means the data from Experimental 1 and CIC50 means the data from Experimental 2.

For assay [2], the target named is T2, Ras farnesyl transferase (Homo sapiens, UniProt P49354+P49356).
T2 construct: made in house
As to the kind of experiment: Ras farnesyl transferase enzyme inhibition, H-Ras substrate. In kind it is biochemical. The conditions noted are these: H-Ras substrate protein; recombinant farnesyl transferase; 30 minutes at 37° C. The text has this: (§3) In the present experiment, the improved Pompliano's method (see: Pompliano et al., Biochemistry, 31, 3800, 1992) was applied. Specifically, Ras farnesyl transferase produced by genetic recombination techniques was used, and fused protein of H-Ras(H-Ras-CVLS) substituted with polybasic lysine domain at C-terminus of K-Ras (see: Korean Patent Appln. No. 97-14409) was used as a substrate after it had been purified according to the known method(see, Chung et al., Biochimica et Biophysica Acta, 1129, 278, 1992).
(§4) The enzyme reaction was performed in 50 μl of 50 mM Sodium HEPES buffer solution containing 25 mM of potassium chloride, 25 mM of magnesium chloride, 10 mM of DTT and 50 μM of zinc chloride. 1.5 μM of Ras substrate protein, 0.15 μM of tritium-farnesylpyrophosphate and 4.5 nM of farnesyl transferase were used. More specifically, in the initial step, farnesyl transferase was added to the above buffer solution, reaction was maintained for 30 minutes at 37° C. and then the reaction was stopped by adding 1 ml of ethanol solution containing 1M HCl. The formed precipitates were adsorbed to GF/B filter using Hopper harvestor(Hopper #FH 225V) for filter-binding, washed with ethanol, and then radioactivity of the dried filter was measured using LKB β counter. Enzyme titer was measured in the unsaturated state of substrate where the concentration of Ras substrate protein and farnesyl transferase have quantitative relationship. The compound according to the present invention dissolved in dimethyl sulfoxide(DMSO) was added to the reaction solution in an amount of less than 5% of the total reaction solution, and then the enzyme inhibitory activity thereof was measured. The enzyme inhibitory activity was represented by percentage of the amount of farnesyl incorporated into the Ras substrate protein in the presence of the test compound to that in the absence of the test compound. IC50 of the test compound was defined as the concentration at which 50% of the enzyme activity was inhibited. To evaluate the selective enzyme inhibitory activity of the compound according to the present invention, inhibitory activity on geranylgeranyl transferase was measured. Geranylgeranyl transferase was purified from bovine brain according to the modified Schaber's method(Schaber et al., J. Biol. Chem. 265, 14701, 1990), and substantially the same experimental procedure as that for farnesyl transferase was performed on geranylgeranyl pyrophosphate and Ras-CVIL substrate protein.

For assay [3], the target named is T1, Ras farnesyl transferase. As to the kind of experiment: In vivo (intracellular) Ras farnesylation inhibition in Rat2 cell line transformed with H-Ras fused with polybasic lysine domain of K-Ras. To be noted: Rat2 cells transformed with H-Ras/K-Ras polybasic domain fused protein; concentration inhibiting 50% of farnesyl binding; read-out: K-Ras CIC50. Format: cell-based. The procedure:
as §1, §2

Assay [4] deals with T2, Ras farnesyl transferase. As to the kind of experiment: Ras farnesyl transferase enzyme inhibition, K-Ras substrate (H-Ras fused with polybasic lysine domain of K-Ras). Format: biochemical. To be noted: K-Ras substrate (fused protein of H-Ras with polybasic lysine domain of K-Ras); recombinant farnesyl transferase.
Text: as §3, §4

Turning to `CCOCCCn1c(Cn2cc(C(=O)N3CCN(C)CC3)c(-c3cccc4ccccc34)c2)cnc1C` [Example 27, 1-[1-(3-ethoxypropyl)-2-methyl-1H-imidazol-5-ylmethyl]-3-(4-methylpiperazin-1-yl)carbonyl-4-(naphthalen-1-yl)-1H-pyrrole], the pIC50 at Ras farnesyl transferase [1] was more than 7.60; at Ras farnesyl transferase [2] it was more than 8.52; on Ras farnesyl transferase [3] it was less than 5.00; on Ras farnesyl transferase [4] it was less than 7.70.

On to `CCOCCCn1cnc(C)c1Cn1cc(C(=O)N2CCN(C)CC2)c(-c2cccc3ccccc23)c1` [Example 28, 1-[1-(3-ethoxypropyl)-4-methyl-1H-imidazol-5-ylmethyl]-3-(4-methylpiperazin-1-yl)carbonyl-4-(naphthalen-1-yl)-1H-pyrrole], for which the pIC50 was more than 8.20 at Ras farnesyl transferase [1], more than 8.66 on Ras farnesyl transferase [2], more than 5.00 on Ras farnesyl transferase [3] and more than 8.49 at Ras farnesyl transferase [4].

For the compound `Cc1ncn(CCCOCc2ccccc2)c1Cn1cc(C(=O)N2CCN(C)CC2)c(-c2cccc3ccccc23)c1` [Example 29, 1-[1-(3-benzyloxypropyl)-4-methyl-1H-imidazol-5-ylmethyl]-3-(4-methylpiperazin-1-yl)carbonyl-4-(naphthalen-1-yl)-1H-pyrrole], the pIC50 at Ras farnesyl transferase [1] is more than 8.20; on Ras farnesyl transferase [2], more than 8.61; at Ras farnesyl transferase [3] it was more than 5.00; at Ras farnesyl transferase [4], more than 8.57.

Take `COCCN(C)C(=O)c1cn(Cc2c(C)ncn2CCCOCc2ccccc2)cc1-c1cccc2ccccc12` [Example 30, 1-[1-(3-benzyloxypropyl)-4-methyl-1H-imidazol-5-ylmethyl]-3-[N-(2-methoxyethyl)-N-methyl]carbamoyl-4-(naphthalen-1-yl)-1H-pyrrole]: the pIC50 is more than 7.90 at Ras farnesyl transferase [1], more than 8.30 on Ras farnesyl transferase [2], more than 5.00 at Ras farnesyl transferase [3] and more than 8.68 on Ras farnesyl transferase [4].

As for `Cc1ncn(CCCOCc2ccccc2Cl)c1Cn1cc(C(=O)N2CCN(C)CC2)c(-c2cccc3ccccc23)c1` [Example 31, 1-{1-[3-(2-chlorobenzyloxy)propyl]-4-methyl-1H-imidazol-5-ylmethyl}-3-(4-methylpiperazin-1-yl)carbonyl-4-(naphthalen-1-yl)-1H-pyrrole], the pIC50 at Ras farnesyl transferase [1] is more than 8.20; at Ras farnesyl transferase [2], more than 8.49; on Ras farnesyl transferase [3], more than 5.00; at Ras farnesyl transferase [4], more than 8.68.

Regarding `COCCN(C)C(=O)c1cn(Cc2c(C)ncn2CCCOCc2ccccc2Cl)cc1-c1cccc2ccccc12` [Example 32, 1-{1-[3-(2-chlorobenzyloxy)propyl]-4-methyl-1H-imidazol-5-ylmethyl}-3-[N-(2-methoxyethyl)-N-methyl]carbamoyl-4-(naphthalen-1-yl)-1H-pyrrole], the pIC50 on Ras farnesyl transferase [1] was more than 8.20; at Ras farnesyl transferase [2], more than 8.22; at Ras farnesyl transferase [3], less than 5.00; at Ras farnesyl transferase [4] it was more than 7.82.

As for `Cc1ncc(Cn2cc(C(=O)N3CCN(C)CC3)c(-c3cccc4ccccc34)c2)n1CCCOCc1ccccc1` [Example 33, 1-[1-(3-benzyloxypropyl)-2-methyl-1H-imidazol-5-ylmethyl]-3-(4-methylpiperazin-1-yl)carbonyl-4-(naphthalen-1-yl)-1H-pyrrole], the pIC50 was less than 7.52 on Ras farnesyl transferase [1], less than 7.52 at Ras farnesyl transferase [2], less than 5.00 on Ras farnesyl transferase [3] and less than 7.52 at Ras farnesyl transferase [4].

`Cc1ncc(Cn2cc(C(=O)N3CCN(C)CC3)c(-c3cccc4ccccc34)c2)n1CCc1ccccc1` [Example 35, 1-[1-(phenethyl)-2-methyl-1H-imidazol-5-ylmethyl]-3-(4-methylpiperazin-1-yl)carbonyl-4-(naphthalen-1-yl)-1H-pyrrole]: the pIC50 is more than 8.60 at Ras farnesyl transferase [1], more than 8.60 at Ras farnesyl transferase [2], less than 5.00 on Ras farnesyl transferase [3] and more than 8.23 on Ras farnesyl transferase [4].

`O=[N+]([O-])c1cn(Cc2cncn2Cc2ccc3c(c2)OCO3)cc1-c1cccc2ccccc12` [Example 36, 1-[1-(3,4-methylenedioxybenzyl)-1H-imidazol-5-ylmethyl]-4-(naphthalen-1-yl)-3-nitro-1H-pyrrole]: the pIC50 on Ras farnesyl transferase [1] is less than 7.00; at Ras farnesyl transferase [2], more than 8.26; on Ras farnesyl transferase [3], less than 4.70; at Ras farnesyl transferase [4] it was more than 7.81.
